“And” between values parts separate entries of the source, which are not always exact repeats. Identical values can stand only once. “Also recorded” adds a separate entry of the source.
Assays:
SW620 cells = test: Cancer cell invasion through HUVECs (transwell); format: cell-based, human; conditions: 10 μM, transwells
Description: Invasion of human colon cancer SW620 cells through human umbilical vein endothelial cells (HUVECs) was assessed in transwells in the absence or presence of the compounds of Formula I and Formula II (10 μM).
HUVECs were seeded (1.5×10^4 cells/well) into trans-well insert in 24-well plate and cultured for three days to allow tight monolayer formation (TEER reading >800 Ω/cm2). The integrity of HUVEC monolayer was confirmed by measuring TEER and only monolayers with TEER reading >800 Ω/cm^2 were used for the invasion assay. The HUVEC monolayers were washed with PBS before introduction of ZsGreen- and luciferase transfected SW620Gal3+, SW620Gal-3, or ACA19+ cells (5×10^5 cells/ml) in serum-free DMEM with 0.5 mg/ml BSA, without or with 10 μM the compound of Formula I or the compound of Formula II. ZsGreen- and luciferase-labelled SW620Gal3− and SW620Gal3+ cells (5×10^5 cells/ml) were mixed without or with 10 μM inhibitors for 15 minutes before introduced to the HUVEC monolayer in the transwells for 16-18 hours. The cells at the upper side of the trans-well inserts were gently removed with a cotton swab and the inserts were washed twice with PBS. The cells that migrated to the bottom side of the trans-wells were lysed with PLB buffer for 10 min. The lyse was introduced with Luciferase Assay Reagent for 5 min before luminescence was measured. […]

[1] = system: galectin-3 knockout (Gal3KO) MDA-MB-231 cells; test: Triple-negative breast cancer cell adhesion to basement matrix, galectin-3 knockout; format: cell-based, human; conditions: galectin-3 knockout by CRISPR/Cas9 (FIG. 15C, 15D)
Description: (§1) Nanty-six well plates were coated with 50 μl Matrigel (1:30 diluted in PBS) at 37° C. for 1 hour. Cancer cells, pre-labelled with fluorescent die DiI at 37° C. for 20 minutes, were washed twice with PBS and resuspended into 3×10^4 cells/ml in serum-free medium. The matrix-coated 96-well plates were washed twice with PBS before introduction of […] cell suspension with different concentrations of the inhibitors or PBS/DMSO (control) for 1 hour at 37° C. The plates were washed twice with PBS before three randomly selected Field of Views (FOVs) were recorded by fluorescence microscope and number of adhesion cells were quantified by Image J.
(§2) MDAMB-231 or PANC-1 cells were seeded into 6-well plate (2×10^5 cells) and cultured at 37° C. for 24 hour. Galectin-3 CRISPR Cas9 Knockout plasmid (2 μg) and galectin-3 HDR plasmid (2 μg) was mixed with Plasmid Transfection Medium (21 μl) for 5 minutes before addition to a mixture of lipofectamine STEM Transfection Reagent (STEM00001) (1 μl) and Plasmid Transfection Medium (25 μl) for 10 minutes at room temperature. The cells in the 6-well plates were washed and introduced with the Plasmid DNA/Lipofectamine STEM Transfection Reagent complex at 37° C. for 24 hours. […] Successful co-transfection of the CRISPR/Cas9 KO Plasmid and HDR Plasmid was confirmed by expression of red fluorescence protein of the cells. […]

PANC1 cell = test: Pancreatic cancer cell adhesion to basement matrix; format: cell-based, human; conditions: for adhesion of control PANC1 cells: non-transfected cells (FIG. 16C, 16D); for PANC1 cell adhesion to matrix: different concentrations (FIG. 16A, 16B)
Description: as §1

SW620^Gal3+ cells = test: Cancer cell adhesion to HUVECs; format: cell-based, human; conditions: 10 μM; Galectin-3-expressing SW620^Gal3+ cells
Description: (§3) Adhesion of human colon cancer SW620 cells to human umbilical vein endothelial cells (HUVECs) was assessed in the absence or presence of the compounds of Formula I and Formula II (10 μM). […] (N=2, n=2);
(§4) Adhesion of human colon cancer SW620 cells to human umbilical vein endothelial cells (HUVECs) was assessed in the absence or presence of the compounds of Formula I and Formula II (10 μM).
(§5) HUVECs (1.5×10^5 cells/ml) were seeded into 96-well plates in complete EBM-2 medium and incubated at 37° C. 5% CO2 for 48-72 hours until a monolayer was formed. Monolayer integrity was confirmed by measuring trans-endothelial electrical resistance (TEER) using a Volt Ohm Meter and only monolayers with TEER reading over 800 Ω/cm^2 were used for the assay. ZsGreen- and luciferase-transfected SW620Gal3+, SW620Gal3− or ACA19+ cells (5×10^5 cells/ml) was then added to the HUVECs without or with 10 μM of the compound of Formula I or the compound of Formula II for 30-35 min at 37° C. The cells were washed twice with PBS before lysed with PLB. The cell lysates were transferred into new wells of white-walled 96-well plates and Luciferase Assay Reagent was added. The wells were mixed well and luminescence was measured using Infinite F200 Microplate reader. The experiment was performed three times, each time in triplicates.

ACA19+ cells = test: Melanoma cell adhesion to HUVECs; format: cell-based; conditions: human melanoma ACA19+ cells, various concentrations
Description: as §3, §4, §5

Galectin-3 = target: T1, Galectin-3 (Homo sapiens, UniProt P17931); test: Galectin-3 binding to its ligand asialofetuin (ASF), ELISA; conditions: Galectin-3 5 μg/ml, ASF 20 μg/ml, read-out: IC50, inhibition of Galectin-3 binding to ASF
T1 construct: made in house; host or cells: E. coli
Description: The compounds of Formula I and Formula II each inhibits Galectin-3 binding to ASF dose-dependently with IC50 1˜5 μM;
FIG. 1A and FIG. 1B show compounds of Formula I and Formula II inhibit Galectin-3 binding to its ligand asialofetuin (ASF). […] The compounds of Formula I and Formula II each inhibit Galectin-3 binding to ASF dose-dependently with IC50 1˜5 μM.
Ninety-six well ELISA plates were coated with 20 μg/ml ASF in coating buffer (1.6 g Na2CO3, 1.46 NaHCO3 in 1 L H20, pH 9.6) overnight at room temperature. The plates were washed twice with washing buffer (0.05% Tween-20 in PBS) before incubation with blocking buffer (1% BSA in PBS) for 30 min. Recombinant human Galectin-3 (5 ug/ml) was incubated without or with various concentrations of the compounds of Formula I and compounds of Formula II for 30 min before introduced to the plates for 2 hr at room temperature. The plates were washed twice with washing buffer before introduction of anti-Galectin-3 antibody (1 μg/ml) for 2 hr. The plates were washed three times with washing buffer before introduction of HRP-conjugated secondary antibody (1:5,000 dilutions) for 1 hr at room temperature. The plates were washed twice with washing buffer before developed by SigmaFAST. The reaction was stopped by addition of 4M sulphuric acid before the plates were read at 492 nm (ref 595 nm) by a microplate reader.

[2] = system: galectin-3 knockout (Gal3KO) PANC1 cells; test: Pancreatic cancer cell adhesion to basement matrix, galectin-3 knockout; format: cell-based, human; conditions: galectin-3 knockout by CRISPR/Cas9 (FIG. 16C, 16D)
Description: as §1, §2

T1 sequence (P17931 whole entry): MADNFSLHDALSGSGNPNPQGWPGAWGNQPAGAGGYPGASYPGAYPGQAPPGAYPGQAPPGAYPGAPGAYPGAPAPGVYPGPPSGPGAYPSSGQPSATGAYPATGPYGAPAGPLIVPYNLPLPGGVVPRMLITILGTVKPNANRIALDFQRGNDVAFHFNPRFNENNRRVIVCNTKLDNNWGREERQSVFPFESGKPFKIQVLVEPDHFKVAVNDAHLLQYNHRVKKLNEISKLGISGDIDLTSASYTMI

Row | SMILES | SW620 cell invasion through HUVECs (SW620 cells) | adhesion of Gal3KO MDA-MB-231 cells [1] | adhesion of control PANC1 cells (PANC1 cell) | PANC1 cell adhesion to matrix (PANC1 cell) | adhesion to HUVEC (SW620^Gal3+ cells) | ACA19+ cell adhesion to HUVEC (ACA19+ cells) | IC50 (Galectin-3) | adhesion of Gal3KO PANC1 cells [2]
1 | C[C@H]1COc2c(N3CCN(C)CC3)c(F)cc3c(=O)c(C(=O)NNc4ccc(N)cc4)cn1c23 [Formula I] | significant inhibits | lost their inhibitory effect | significant reduction; also recorded: significant inhibition | dose-dependently inhibits | significantly inhibits | dose-dependent inhibition | ~1 µM and 1 to 5 µM | lost their inhibitory effect
2 | C[C@H]1COc2c(N3CCN(C)CC3)c(F)cc3c(=O)c(C(=O)NNc4cccc(N)c4)cn1c23 [Formula II] | significant inhibits | lost their inhibitory effect | significant reduction; also recorded: significant inhibition | dose-dependently inhibits | significantly inhibits | dose-dependent inhibition | ~5 µM and 1 to 5 µM | lost their inhibitory effect
